“Also recorded” adds a separate entry of the source.
Tests used:
H4 cells = assay: Removal of synthetic Aβ spiked into culture medium of H4 cells; assay type: cell-based, human; conditions: incubated 6 or 24 hrs, presence vs absence of phosphoramidon
Experimental: Human and guinea pig Aβ40 or Aβ42 was measured in plasma by sandwich ELISA as previously described (Suzuki et al., 1994, Science, 264:1336-1340) using the BAN-50/BA-27 or BAN-50/BC-05 antibody systems, respectively (Takeda; Japan). Hamster Aβ40- or Aβ42-derived from CHO cells was measured using the BNT-77/BA-27 or BNT-77/BC-05 antibody systems, respectively. Aβ concentration in samples was determined by comparison to synthetic Aβ40 or Aβ42 standards (Bachem, Switzerland). Data was obtained from triplicate wells. […] Plates were read at 450 nm in a SpectraMax Plus spectrophotometer (Molecular Devices; Sunnyvale, Calif.) and analyzed by SOFTmax® PRO software. Aβ40 or Aβ42 were quantitated by comparison with the values obtained for each synthetic Aβ standard from the same plate. To exclude the possibility that the phosphoramidon-induced effect was due to inhibition of extracellular degradation and/or internalization of Aβ by H4 cells, synthetic Aβ was spiked into the culture medium, incubated for 6 or 24 hrs, and the amount of synthetic Aβ remaining in the medium was determined by sandwich ELISA. […] Intracellular Aβ has not been convincingly detected in H4 cells, presumably due to rapid secretion of the peptide.

H4 neuroglioma cells = conditions: reported; cited from earlier work

CC(C)C[C@H](NP(=O)(O)O[C@@H]1O[C@@H](C)[C@H](O)[C@@H](O)[C@H]1O)C(=O)N[C@@H](Cc1c[nH]c2ccccc12)C(=O)O [phosphoramidon]
removal of synthetic Aβ spiked into the culture medium (H4 cells): removed equally; also recorded: not affected | extracellular Aβ concentration (H4 neuroglioma cells): significant increase

Source: patent publication US6699681B2, “Endothelin converting enzymes and the amyloid β peptide” (Mayo Foundation for Medical Education and Research, priority 2000, dated 2004)
